A short description of data set [1]: Solubility of synthesized peptide. Type of data set: physicochemical. The conditions noted are these: in 1% DMSO. The protocol: PSA-OP was synthesized on an Applied Biosystems Model 432A peptide synthesizer. It operates on a 25 μmole scale and employs f-moc chemistry and feedback monitoring to control the coupling of each successive amino acid to the growing chain. The completed peptide is cleaved off the synthesis resin with -trifluoroacetic acid and thioanisole/ethanedithiol as scavengers. Acid salts are extracted with tert-butyl methyl ether and the peptide is lyophilized from water to give approximately 64 mg powder. The powder is soluble at 2 mg/ml in 1% DMSO and sterile-filtered aliquots show a single sharp peak on C18 reverse phase high performance liquid chromatography.

The target in data set [2] is T1, human HLA A2 molecules (Homo sapiens, UniProt P04439, D140Y/D185E/D98H/E176V/E277Q/G131W/G231S/I119V/I121R/I166T/I218V/L300P/L318F/N151K/N90K/P208A/P217A/Q86G/Q94H/R138H/R169H/T345S).
T1 construct: endogenous in cells; host or cells: T2 cells (174CEM.T2)
The experiment in a line: T2 cell binding assay (PSA peptide binding assay, Example II). The conditions noted are these: peptides at 50 μg/ml, None = 127.25. The source says: The amino acid sequence of human PSA was scanned using a predictive algorithm that combines a search for anchor residues with numerical assignments to all residues at all positions. The T2 cell binding assay was then used to determine which peptides bound human HLA A2 molecules. […] Table 7 gives the amino acid sequence of these peptides and compares them to corresponding sequences of HGK and PKA.

In data set [3] the test system is CIR-A2 cells. Kind of data set: Effects of protease inhibitors on CTL mediated killing of CIRA2 cells pulsed with PSA-OP. Type of data set: cell-based, human. As to conditions: Donor-1 PSA-OP CTL, 25:1 E:T ratio; for % of Specific Release (+/−SD), CIRA2 cells, No peptide: Medium 7.7 (1.9). The protocol: Various target cells were labeled with 50 μCi of ^111In-oxyquinoline (Medi-Physics Inc., Arlington, Ill.) for 15 minutes at room temperature. Target cells (0.2×10^4) in 100 μl of complete medium (see below) were added to each of 96 wells in flat bottom assay plates (Corning Costar Corp.). The labeled targets were incubated with peptides at a final concentration of 50 μg/ml for 60 min at 37° C. in 5% CO2 before adding effector cells. Effector cells were suspended in 100 μl of complete medium supplemented with 5% pooled human AB serum and added to target cells. The plates were incubated at 37° C. for 16 hours. Supernatants were harvested for γ-counting using harvester frames (Skatron, Inc. Sterling, Va.). Determinations were carried out in triplicate and standard deviations were calculated. All experiments were carried out three times. Specific Lysis was calculated using the following formula: % of Specific Release=observed release(cpm)−spontaneous release(cpm) total releae(cpm)−spontaneous release(cpm)×100
[…] Peptide pulsed target cells were incubated with protease inhibitors. Protease inhibitors used were E64, carboxypeptidase inhibitor, plummer inhibitor, and captopril (angiotension converting enzyme inhibitor) at various concentrations (10^−5, 10^−6, 10^−7 M). CTL activity was determined by the CTL assay described above.

Data set [4] deals with T2, HLA class-I A2001 molecule (Homo sapiens, UniProt P04439, D140Y/D185E/D98H/E176V/E277Q/G131W/G231S/I119V/I121R/I166T/I218V/L300P/L318F/N151K/N90K/P208A/P217A/Q86G/Q94H/R138H/R169H/T345S).
T2 construct: endogenous in cells; host or cells: T2 cells (174CEM.T2, transport deletion mutant)
The experiment in a line: Peptide binding to HLA-A2: upregulation on T2 cells by flow cytometry (Example IV). The conditions noted are these: T2 cells incubated 24 h with peptide 50 μg/ml/10^6 cells; 100 cut off value for positivity; None = 16.88.
Description: 1×10^6 cells in serum-free IMDM were incubated with peptides at the concentration of 50 μg/ml in 24-well culture plates at 37° C. in 5% CO2. Flow cytometry for peptide binding was performed using T2 cells and single color analysis. After cells were washed three times in DPBS as above, they were incubated for 1 hr with HLA-A2 specific MAb A2,69 (One lambda, Inc., Canoga Park, Calif.), using 10 μl of a 1× working dilution per 10^6 cells. MOPC-21 (Cappel/Organon Teknika Corp.) was used as isotype control. The cells were then washed three times and incubated with 1:100 dilution of fluorescein (FITC) labeled anti-mouse IgG (Kirkegaard & Perry, Gaithersburg, Md.). Analysis was carried out using the FACScan as described above. Cells were maintained on ice during all cell preparation and staining unless otherwise stated.

In data set [5] the test system is PBLs isolated from male HLA-A2001+ donors. Kind of data set: Limiting dilution analysis of CTL precursor frequency. The class given is cell-based, human. The conditions noted are these: for Number of precursors (precursor frequency): calculated by X^2 minimization; for % of negative microcolonies, 10,000: two cycles of stimulation with the peptide, targets CIRA2 pulsed 3 h, cold K562. How it is done: Limiting dilution assays were used for the determination of precursor frequencies to PSA-1, PSA-3 and PSA-OP. Various number of PBMCs were seeded in 96-well flat bottom plates (Coming Costar) with 1×10^4 autologous PBMC irradiated with 4,000 rads and incubated with 50 μg/ml of PSA peptide. Cells were cultured in complete medium as described previously. At least 48 cultures were set up for each dilution. Cultures were incubated for 5 days at 37° C. in a humidified atmosphere containing 5% CO2 and then provided with fresh medium containing human IL-2 for 11 days, with IL-2-containing medium being replenished every 72 hr as shown below for CTLs generation. After two cycles of stimulation specific cytotoxic activity was tested for each single well, against CIR-A2 target cells with or without incubation with peptide. Cytotoxic assays were similar to the method described above. The unlabelled K562 cells were added to the microwells containing responder cells. After 1 hr incubation at 37° C. target cells were added into each well and incubated for 6 hrs at 37° C. Precursor frequencies were calculated by X^2 minimization.

For data set [6], the system named is NK target K562. Kind of data set: Cytotoxic assay of PSA peptide specific T cells against K562. The conditions noted are these: 24 hour assay, E:T ratio 25:1. The class given is cell-based, human. The source says:
(§1) Four of the T cell lines derived from three different individuals were then assays for their ability to lyse human cells (Table 9). […] No lysis was seen using the PSA negative human colon cancer cell line COLO-205. While 80% lysis was seen using the LNCAP PSA expressing human prostate cancer cell line. When employing the NK target K562, which measures non-specific lysis due to NK cell activity, only 23% lysis was obtained. Similar results were seen employing a different T cell line obtained from the same patient which was derived from pulsing with PSA peptide 154-163. Two additional T cell lines which were derived from peptide 154-163 were also analyzed. One was from a normal donor (T-1538) and one was from a prostate cancer patient (T-PC2; T Donor C).

Data set [7] has as its system PSA negative human colon cancer cell line COLO-205. Kind of data set: Cytotoxic assay of PSA peptide specific T cells against COLO-205. The conditions noted are these: 24 hour assay, E:T ratio 25:1. The class given is cell-based.
Description: as §1

In data set [8] the test system is PBMC from normal healthy donors expressing the HLA A2 class 1 allele. Kind of data set: Establishment of human T cell lines by pulsing PBMC with peptide and IL-2. Type of data set: cell-based. As to conditions: donors with T cell line / donors tested; PBMC pulsed with peptide and IL-2. The source says:
Cytotoxic T-cells specific for PSA can be established from peripheral blood mononuclear cells (PBMC) obtained from a host immunized as discussed above. For example, PBMC can be separated by using Lymphocyte Separation Medium gradient (Organon Teknika, Durham, N.C., USA) as previously described [Boyum et al, Scand J. Clin Lab Invest 21:77-80 (1968)]. Washed PBMC are resuspended in a complete medium, for example, RPMI 1640 (GIBCO) supplemented with 10% pool human AB serum (Pel-Freeze Clinical System, Brown Dear, Wisc., USA), 2 mM glutamine, 100 U/ml penicillin and 100 μg/ml of streptomycin (GIBCO). PBMC at a concentration of about 2×10^5 cells in complete medium in a volume of, for example 100 μl are added into each well of a 96-well flat-bottom assay plate (Costar, Cambridge, Mass., USA). The antigen or peptides are added into the cultures in a final concentration of about 50 μg/ml and incubated at 37° C. in a humidified atmosphere containing 5% CO2 for 5 days. After removal of peptide containing media, the cultures are provided with fresh human IL-2 (10 U/ml) after 5 days and replenished with IL-2 containing medium every 3 days. Primary cultures are restimulated with the same peptide (50 μg/ml) on day 16. 5×10^5 irradiated (4,000 rad) autologous PBMC are added in a volume of about 50 μl complete medium as antigen-presenting cells (APC). […]

Data set [9] relates to LNCAP PSA expressing human prostate cancer cell line. The experiment in a line: Cytotoxic assay of PSA peptide specific T cells against LNCAP (Example III). Type of data set: cell-based. The conditions noted are these: 24 hour assay, E:T ratio 25:1.
Description: as §1

Data set [10] deals with T2 cells. The experiment in a line: Cytotoxic assay of PSA peptide specific T cells against T2 cells. The class given is cell-based, human. As to conditions: 24 hour assay, E:T ratio 25:1.
[11] abbreviates: T-Donor C T-cell line (prostate cancer patient).

Converted amounts (≈) assume the structure as drawn. Marks after values point to notes of the source that are not given here. Residues, ends and D or L forms follow the SMILES beside them.

As to `CC[C@H](C)[C@H](NC(=O)[C@@H](NC(=O)[C@H](Cc1c[nH]cn1)NC(=O)[C@H](CC(C)C)NC(=O)[C@H](CC(=O)O)NC(=O)[C@@H](NC(=O)[C@H](CS)NC(=O)[C@H](CCC(N)=O)NC(=O)[C@H](CC(C)C)NC(=O)[C@H](CCCCN)NC(=O)[C@H](CCCCN)NC(=O)[C@@H]1CCCN1C(=O)[C@@H](NC(=O)[C@H](CC(C)C)NC(=O)[C@@H](N)Cc1ccccc1)[C@@H](C)O)C(C)C)C(C)C)C(=O)N[C@@H](CO)C(=O)N[C@@H](CC(N)=O)C(=O)N[C@@H](CC(=O)O)C(=O)N[C@H](C(=O)N[C@@H](CS)C(=O)N[C@@H](C)C(=O)N[C@@H](CCC(N)=O)C(=O)N[C@H](C(=O)N[C@@H](Cc1c[nH]cn1)C(=O)N1CCC[C@H]1C(=O)N[C@@H](CCC(N)=O)C(=O)N[C@@H](CCCCN)C(=O)N[C@H](C(=O)N[C@H](C(=O)N[C@@H](CCCCN)C(=O)O)[C@@H](C)O)C(C)C)C(C)C)C(C)C` [PSA-OP] (H-FLTPKKLQCVDLHVISNDVCAQVHPQKVTK-OH; N-terminus and C-terminus assumed), the concentration in solution in [1] (solubility) was 2000 µg/mL (≈ 590 µM).
As for KLQCVDLHV [PSA 146-154, ID No. 9], the figures for the “MAb A2, 69: Mean channel fluorescent intensity” value in [2] and in [2] (listed as 146-154) were 223.97 and “positive”, respectively.
For `C[C@H](CS)C(=O)N1CCC[C@H]1C(=O)O` [Captopril, captopril], in data set [3] (inhibitor 10^−6 M), the “% of Specific Release (+/−SD), CIRA2 cells pulsed with PSA-OP peptide [50 μg/ml]” value is reported as 11.0 (2.6) % and the “% of Specific Release (+/−SD), CIRA2 cells, No peptide” value is recorded as 15.8 (2.1) %.
Regarding `NC(N)=NCCSCC(CS)C(=O)O` (centres unmarked) [Plummer's], the “% of Specific Release (+/−SD), CIRA2 cells, No peptide” value in data set [3] (inhibitor 10^−5 M) is on record as 10.7 (2.0) %.
Turning to “PSA [42-51]: negative control peptide, unable to bind HLA class I-A2 [reference compound]”, the “T2 binding: relative fluorescence (mean intensity) with anti-HLA-A2 mAb” value in [4] turned out to be 51.44.
For the compound `CC(C)C[C@H](NC(=O)[C@H]1O[C@@H]1C(=O)O)C(=O)NCCCCN=C(N)N` [E 64], in data set [3] (inhibitor 10^−6 M), the “% of Specific Release (+/−SD), CIRA2 cells pulsed with PSA-OP peptide [50 μg/ml]” value is on record as 13.7 (0.6) % and the “% of Specific Release (+/−SD), CIRA2 cells, No peptide” value was 11.9 (1.7) %.
Consider VISNDVCAQV [PSA-3, ID No. 2], for which the “% of negative microcolonies, 500” value in [5] (T/PSA-OP 2 donor) stood at 100.0%; in [5] (T/PSA-OP 3 donor) it was 97.6%. Moreover, the “% of negative microcolonies, 1,000” value in data set [5] (T/PSA-OP 2 donor) was found to be 100.0%; in data set [5] (T/PSA-OP 3 donor) it was 95.8%. The “% of negative microcolonies, 5,000” value in data set [5] (T/PSA-OP 2 donor) came to 97.8%; in [5] (T/PSA-OP 3 donor), 93.7%. Also, the “Number of precursors (precursor frequency)” value in [5] (T/PSA-OP 2 donor) is 1/244200; in data set [5] (T/PSA-OP 3 donor), 1/59279. Also, the results for the “% of negative microcolonies, 10,000” value in data set [5] (T/PSA-OP 2 donor) and in data set [5] (T/PSA-OP 3 donor) were 95.8% and 89.6%, respectively. For the same compound, the “% specific release (lysis), K562” value in data set [6] (T-Donor A T-cell line) worked out at 22%; in [6] (T-Donor B T-cell line), 3%; in data set [6] (setting [11]), 2%. For the same compound, the “% specific release (lysis), COLO-205” value in data set [7] (T-Donor A T-cell line) stood at 10%; in data set [7] (T-Donor B T-cell line), 10%; in data set [7] (setting [11]), 8%. For the same compound, the entries for the “MAb A2, 69: Mean channel fluorescent intensity” value in data set [2] (listed as 154-163) and in [2] (listed as PSA 154-163) were “positive” and 182.30, respectively. Moreover, in [4], the “T2 binding: relative fluorescence (mean intensity) with anti-HLA-A2 mAb” value is recorded as 123.71. Further, the “T cell lines established from normal donors” value in data set [8] was 6/6. In addition, the “% specific release (lysis), LNCAP” value is recorded as 60^b % in [9] (T-Donor A T-cell line), 29^b % in [9] (T-Donor B T-cell line) and 35^b % in data set [9] (setting [11]). Besides, the “% specific release (lysis), T2” value in [10] (T-Donor A T-cell line derived with the peptide, 111In release) is listed as 16%; in data set [10] (T-Donor B T-cell line), 10%; in data set [10] (setting [11]), 15%. For the same compound, the “% specific release (lysis), T2 + peptide” value in data set [10] (T-Donor A T-cell line) is 35^b %; in data set [10] (T-Donor B T-cell line), 40^b %; in [10] (setting [11]), 35^b %.

Broadly, the solubility is how much of the substance goes into solution per volume.

The values are drawn from US20050196806A1, “Prostate specific antigen oligoepitope peptide” (The Government of the USA, as represented by the Secretary, …, priority 1996, published 2005).
